# Experimental data from publication PMC6877352, “Modifying the Siderophore Triacetylfusarinine C for Molecular Imaging of Fungal Infection” (Molecular imaging and biology, 2019).
# Values joined by “and” are separate entries in the source; they are usually repeats but may differ in a detail not shown here. Identical values can stand only once. “Also recorded” adds a separate entry of the source.
# Experiments:
# [1] = system: A. fumigatus wildtype (ATCC46645); experiment: In vitro uptake assay in A. fumigatus; type: cell-based, Aspergillus fumigatus; conditions: iron-starvation condition, 45 min, normalized to [^68Ga]TAFC uptake from the same experiment, n = 3
# Description: For in vitro uptake studies, A. fumigatus wildtype (ATCC46645) was used. Fungal strain was cultured at 37 °C in Aspergillus minimal medium (AMM) containing 1 % (m/v) glucose as carbon source, 20 mM glutamine as nitrogen source, salts, and trace elements. Iron-sufficient media were prepared by adding FeSO4 to a final concentration of 30 μM. For iron-deficient conditions, supplementation of iron was omitted. Iron starvation was verified by the detection of extracellular siderophore production which is suppressed by iron supplementation.
# Uptake assays were performed in either iron-deficient or iron-sufficient A. fumigatus wildtype cultures. In a 96-well MultiScreen Filter Plates HTS (1 μm glass fiber filter, Merck Millipore, Darmstadt, Germany), 180 μl of A. fumigatus suspended in iron-replete or iron-depleted medium was added. [^68Ga]siderophores (approx. 1 × 10^5 cpm, 80 nM) were incubated with either PBS pH 7.4 (total series) or blocking solution (10 μM [Fe]TAFC) (non-specific series) at RT for 45 min in quadriplicates. The incubation was interrupted by suction of the medium and the plate was washed twice with ice-cold TRIS-buffered saline (10 mM, pH 7.3). The filters were isolated and the remaining activities were measured in the gamma counter. The uptake was calculated as % uptake of total activity added; each assay was repeated three times. To normalize uptake variations between different fungal cultures, the uptake of each [^68Ga]siderophore was expressed as the ratio to [^68Ga]TAFC uptake from the same experiment. The mean values of three different assays were used to quantitatively compare the difference in uptake between the compounds.
# [2] = Biodistribution in healthy BALB/c mice; conditions: 90 min p.i.
# Description: At 90 min post injetion (p.i.), mice were sacrified by cervical dislocation. Organs and tissues (blood, spleen, pancrease, stomach, intestine, kidneys, liver, heart, lung, muscle, femur) were collected and weighed. Radioactivities accumulated by tissues were measured in the gamma counter. The obtained values were expressed as the percentage of injected dose per gram tissue (%ID/g). Urine sample from each animal was injected to RP-HPLC for analysis of urinary metabolic profile of [^68Ga]siderophore.
# [3] = Protein binding in human serum (size exclusion spin columns); conditions: 37 °C, n = 3
# Description: At selected time points, 25 μl of serum aliquots was applied on size exclusion spin columns MicroSpin™ G-50 (GE Healthcare, Vienna, Austria). Columns were centrifuged at 2000 rcf for 2 min to separate protein bound radiotracer (eluate) from non-protein bound radiotracer (column). Protein binding ability was determined by measuring activities of column and eluate in the gamma counter.
# [4] = Small animal PET/CT imaging in non-infected Lewis rats; conditions: for excretion in PET/CT images: healthy Lewis rats, 45 min p.i.; for Lung uptake (non-infected): non-infected Lewis rats, r.o. injection ~6 MBq, PET/CT 45 min p.i.
# Description: (§1) PET and CT images were acquired with an Albira PET/SPECT/CT small animal imaging system (Bruker Biospin Corporation, Woodbridge, CT, USA). A. fumigatus infection in rats was established as described by Petrik, et al.. A group of 3 female Lewis rats (2–3 months old), healthy or lung infected, were injected retro-orbitally (r.o.) with [^68Ga] […] Animals were anesthetized with isoflurane (FORANE, Abbott Laboratories, Abbott Park, IL, USA) (2 % flow rate) and positioned prone head first in the Albira system. PET/CT imaging was started 45 min p.i. with a 10-min PET (FOV 148 mm axial) and a subsequent triple CT scanning (FOV 3 × 65 mm axial, 45 kVp, 400 μA, at 400 projections). For reconstruction, Albira software (Bruker Biosoin Corporation, Woodbridge, CZ, USA) was used involving filtered backprojection and MLEM algorithms. PMOD software (PMOD Technologies Ltd., Zurich, Switzerland) was used to analyze and view the reconstructed images.
# [5] = Stability in PBS pH 7.4 (RP-HPLC, %RCP); conditions: PBS pH 7.4, 37 °C, n = 3
# Description: (§2) [^68Ga]siderophore (50 μl, 2 nmol) was incubated in 450 μl PBS or human serum at 37 °C. At each time point, aliquot of PBS was injected directly to RP-HPLC whereas serum aliquot was mixed with MeOH, vortexed, and centrifuged at 20,000 rcf for 2 min. Supernatant was diluted with H2O and subsequently analyzed by RP-HPLC. The stability was presented as %RCP of radiotracer (n = 3).
# A. fumigatus infection = experiment: Small animal PET/CT imaging in rat IPA model; conditions: IPA Lewis rats (A. fumigatus lung infection), r.o. injection ~6 MBq, PET/CT 45 min p.i.
# Description: as §1
# [6] = Stability in fresh human serum (RP-HPLC, %RCP); conditions: 37 °C, n = 3
# Description: as §2
# [7] = Distribution coefficient (logD), octanol/PBS pH 7.4; type: physicochemical; conditions: [^68Ga]siderophore 4 μM, octanol/PBS pH 7.4, n = 5
# Description: [^68Ga]siderophore (4 μM) in 500 μl phosphate-buffered saline (PBS), pH 7.4, was added to 500 μl octanol. The mixture was vortexed at 1400 rpm for 15 min and subsequently centrifuged at 2000 rcf for 2 min.
# [8] = system: A. terreus wildtype strain; experiment: In vitro uptake assay in A. terreus (lacks the MirB transporter); type: cell-based, Aspergillus terreus
# Description: To confirm the specificity of uptake of TAFC derivatives by A. fumigatus via the MirB transporter, A. terreus, which lacks the MirB transporter, was used for in vitro uptake assay. A. terreus was grown in either iron-deficient or iron-sufficient cultures. Uptake studies were performed as described for A. fumigatus and expressed as % uptake of total activity added.
# [9] = healthy BALB/c mice, i.v., n = 3
Compound,uptake ratio to [^68Ga]TAFC [1],species detected in urine (RP-HPLC urinary metabolic profile) ([2]; BALB/c mice),"excretion ([2]; healthy BALB/c mice, i.v.)","blood levels [2, 9]",Protein binding (%) ([3]; incubation time 30 min),Protein binding (%) ([3]; incubation time 60 min),Protein binding (%) ([3]; incubation time 120 min),excretion in PET/CT images [4],Lung uptake (non-infected) [4],Stability in PBS (%) ([5]; 30 min),Stability in PBS (%) ([5]; 60 min),Stability in PBS (%) ([5]; 120 min),Lung uptake (infected) (A. fumigatus infection),Stability in serum (%) ([6]; 30 min),Stability in serum (%) ([6]; 60 min),Stability in serum (%) ([6]; 120 min),other results
"CC(=O)NC1CCCN(O)C(=O)C=C(C)CCOC(=O)C(NC(C)=O)CCCN(O)C(=O)C=C(C)CCOC(=O)C(NC(C)=O)CCCN(O)C(=O)C=C(C)CCOC1=O (stereo not drawn) (68Ga complex, metal not drawn) [TAFC, triacetylfusarinine C]",1,only intact,rapid renal excretion,< 0.1 %ID/g,2.54 ± 1.01%,3.55 ± 0.68%,2.96 ± 0.33%,excreted rapidly via the urinary system,0.20 ± 0.03 %ID/g,99.89 ± 0.02%,99.83 ± 0.13%,99.73 ± 0.03%,0.69 ± 0.11 %ID/g,99.48 ± 0.29%,99.46 ± 0.09%,99.41 ± 0.19%,
"CCCC(=O)NC1CCCN(O)C(=O)C=C(C)CCOC(=O)C(NC(=O)CCC)CCCN(O)C(=O)C=C(C)CCOC(=O)C(NC(=O)CCC)CCCN(O)C(=O)C=C(C)CCOC1=O (stereo not drawn) (68Ga complex, metal not drawn) [TBuFC, tributanoyl(FSC)]",0.86,,,,,,,,,,,,,,,,uptake ratio to [^68Ga]TAFC ([1]; listed as [^68Ga]TBuFC): around 1; logD [7]: 0.34 ± 0.01
"C/C1=C/C(=O)N(O)CCCC(N)C(=O)OCC/C(C)=C\C(=O)N(O)CCCC(N)C(=O)OCC/C(C)=C\C(=O)N(O)CCCC(N)C(=O)OCC1 (stereo not drawn) (68Ga complex, metal not drawn) [FSC, fusarinine C]",1.37,,,,,,,,,,,,,,,,"uptake ratio to [^68Ga]TAFC ([1]; listed as [^68Ga]FSC): ~1.4; Uptake in A. terreus in iron-replete condition ([8]; iron-replete condition): 2 % of total activity added; Uptake in A. terreus with TAFC blocking ([8]; iron-starvation condition with TAFC blocking): 28 % of total activity added; uptake in A. terreus ([8]; iron-starvation condition, 45 min, n = 3): > 30 % of total activity added"
"CC1=CC(=O)N(O)CCCC(NC(=O)CCC(=O)O)C(=O)OCCC(C)=CC(=O)N(O)CCCC(NC(=O)CCC(=O)O)C(=O)OCCC(C)=CC(=O)N(O)CCCC(NC(=O)CCC(=O)O)C(=O)OCC1 (stereo not drawn) (68Ga complex, metal not drawn) [FSC(suc)3, trisuccinyl(FSC)]",0.01,only intact,rapid renal excretion,< 0.1 %ID/g,2.53 ± 0.63%,2.96 ± 0.21%,2.60 ± 0.62%,excreted rapidly via the urinary system,0.21 ± 0.03 %ID/g,99.85 ± 0.07%,99.77 ± 0.12%,99.72 ± 0.09%,,99.59 ± 0.08%,99.43 ± 0.17%,99.36 ± 0.08%,uptake ratio to [^68Ga]TAFC ([1]; listed as [^68Ga]FSC(suc)3): less than 0.05; retention in the intestine and kidneys in comparison with [^68Ga]TAFC ([2]; BALB/c mice): Slightly lower retention; Lung uptake (infected) (A. fumigatus infection; listed as [^68Ga]FSC(suc)3): 0.31 ± 0.04 %ID/g and 0.3 %ID/g
"CCCC(=O)NC1CCCN(O)C(=O)C=C(C)CCOC(=O)C(NC(C)=O)CCCN(O)C(=O)C=C(C)CCOC(=O)C(NC(C)=O)CCCN(O)C(=O)C=C(C)CCOC1=O (stereo not drawn) (68Ga complex, metal not drawn) [DABuFC, diacetylbutanoyl(FSC)]",0.87,only intact,rapid renal excretion,< 0.1 %ID/g,2.63 ± 1.03%,2.92 ± 1.11%,3.61 ± 1.19%,,0.23 ± 0.03 %ID/g,99.87 ± 0.07%,99.85 ± 0.08%,99.79 ± 0.14%,0.79 ± 0.15 %ID/g,99.58 ± 0.04%,99.59 ± 0.20%,99.60 ± 0.14%,"uptake ratio to [^68Ga]TAFC ([1]; listed as [^68Ga]DABuFC): around 1; retention in the blood, spleen, and pancreas in comparison with [^68Ga]TAFC ([2]; BALB/c mice): Slightly lower retention; excretion in PET/CT images ([4]; listed as [^68Ga]DABuFC): excreted rapidly via the urinary system; also recorded: certain hepatobiliary excretion"
"CCC(=O)NC1CCCN(O)C(=O)C=C(C)CCOC(=O)C(NC(=O)CC)CCCN(O)C(=O)C=C(C)CCOC(=O)C(NC(=O)CC)CCCN(O)C(=O)C=C(C)CCOC1=O (stereo not drawn) (68Ga complex, metal not drawn) [TPFC, tripropanoyl(FSC)]",1.40,only intact,rapid renal excretion,< 0.1 %ID/g,2.31 ± 0.57%,3.39 ± 0.32%,2.65 ± 0.66%,,0.20 ± 0.02 %ID/g,99.90 ± 0.02%,99.86 ± 0.04%,99.79 ± 0.11%,0.63 ± 0.08 %ID/g,99.67 ± 0.19%,99.56 ± 0.23%,99.54 ± 0.25%,"uptake ratio to [^68Ga]TAFC ([1]; listed as [^68Ga]TPFC): ~1.4; uptake in intestine [2, 9]: lower than 3 %ID/g; excretion in PET/CT images ([4]; listed as [^68Ga]TPFC): excreted rapidly via the urinary system; also recorded: certain hepatobiliary excretion"
